# From patent EP0290583B1, “$g(a) OLIGONUCLEOTIDES” (CENTRE NATIONAL DE LA RECHERCHE SCIENTIFIQUE (CNRS), priority 1986, dated 1988)
# Legend:
# [1] = tested on: fragment d'ADN simple brin (10 nM) de séquence d(^5'TGAGTGAGTAAAAAAAATGAGTGCCAA^3'); experiment: Specific cleavage of single-stranded DNA by a phenanthroline-coupled alpha-oligonucleotide; assay type: biochemical; conditions: 5µM, sulfate cuivrique (1µM), acide β-mercaptopropionique (1 mM), 0°C, 3 heures
# Experimental: (§1) L'α-D-oligonucléotide décrit à l'exemple XIV (5µM) est dissous dans un tampon à pH 7 contenant 10 mM cacodylate de sodium et 0,1 M NaCl. […] Du sulfate cuivrique (1µM) et de l'acide β-mercaptopropionique (1 mM) sont ajoutés à 0°C et le mélange est incubé à 0°C pendant 3 heures. De la bathocuproine est ajoutée pour arrêter la réaction. Le mélange est disposé sur un gel de polyacrylamide à 18 % et soumis à l'électrophorèse.
# [2] = tested on: fragment d'ADN double brin; experiment: Specific cleavage of double-stranded DNA by a phenanthroline-coupled alpha-oligonucleotide; assay type: biochemical; conditions: en présence de 1 mM spermine
# Experimental: as §1
# La position des sites de coupure sur le double brin indique que l'α-D-oligothymidylate XIV est orienté parallèlement au brin contenant la séquence A₈.
# [3] = tested on: β-d^5' [AGATTTGAG]^3'; experiment: Half-dissociation temperature (T 1/2) of the hybridisation complex with a parallel complementary beta strand; assay type: binding; conditions: 10 mM cacodylate de sodium/0,1M NaCl, pH = 7, 10 µM
# From the text: (§2) Les nouveaux produits de formule générale (I) selon l'invention et les produits de formule générale (I) dans laquelle L représente un atome d'oxygène, R et R' représentent chacun un atome d'hydrogène et B représente un base nucléique naturelle forment des complexes d'hybridation avec les séquences complémentaires d'ARN beaucoup plus stables que ceux qui sont formés avec l'ADN. La stabilité peut être mesurée par la température de demi-transition des complexes (T 1/2) lors d'une élévation de température. Les valeurs de T 1/2 sont déterminées à la concentration de 10⁻⁵M en α -oligonucléotide dans un tampon à pH = 7 contenant du cacodylate de sodium (10⁻²M) et du chlorure de sodium (0,1 M). Les résultats sont rassemblés dans les Tableaux I.
# (§3) Dans les hybrides formés par les dérivés des α-oligonucléotides selon l'invention avec les séquences d'acides nucléiques complémentaires les deux brins possèdent généralement la même orientation.
# [4] = tested on: β-d^5'[GAGTTTAGA]^3'; experiment: Complex formation with the antiparallel beta strand; assay type: binding; conditions: antiparallel sequence; 10 mM cacodylate de sodium/0,1M NaCl, pH = 7, 10 µM
# From the text: as §2, §3
# [5] = tested on: β-d^5' (ApCpGpGpApApTpApTpApGpC]^3'; experiment: Half-dissociation temperature (T 1/2) of the hybridisation complex with a parallel complementary beta strand; assay type: binding; conditions: 10 mM cacodylate de sodium/0,1M NaCl, pH = 7, 10 µM
# From the text: as §2, §3
substance,measurement,setting,value
(Phe-CH₂)α-[(sp)(Tp)₇T] [XIV],coupure de l'ADN simple brin (sites de coupures),[1],sites de coupures sont révélés
same,coupure de l'ADN double brin,[2],induit des coupures sur les deux brins de la double hélice
Acr(CH₂)₅ α-d^5'[TCTAAACTC]^3',température de demi-dissociation (T 1/2),[3],27 °C
same,complexe mis en évidence au-dessus de 0°C,[4],Aucun complexe
[Acr(CH₂)₅]α-d(pCpCpTpTpApTpApTpT) [Acr(CH₂)₅-α-d^5' [pCpCpTpTpApTpApTpT]^3'],température de demi-dissociation (T 1/2),[5],35 °C
